Target: S. aureus GyrB ATPase (Staphylococcus aureus, UniProt P0A0K8)
Assay: S. aureus GyrB ATPase inhibition (ammonium molybdate/malachite green phosphate detection)
Assay type: biochemical
Settings: compound concentration of 1 μM (unless otherwise noted)
Description: E. coli GyrB ATPase Inhibition Activity: Compounds can be tested for inhibition of E. coli GyrB ATPase activity using an ammonium molybdate/malachite green-based phosphate detection assay (Lanzetta, P. A., L. J. Alvarez, P. S. Reinach, and O. A. Candia, 1979, 100: 95-97). Assays can be performed in multiwell plates in 30 μl reactions containing: 50 mM Hepes buffer pH 7.5, 75 mM ammonium acetate, 8.0 mM magnesium chloride, 0.5 mM ethylenediaminetetraacetic acid, 5% glycerol, 1 mM 1,4-Dithio-DL-threitol, 200 nM bovine serum albumin, 1.6 μg/ml sheared salmon sperm DNA, 400 pM E. coli GyrA, 400 pM E. coli GyrB, 250 μM ATP, and compound in dimethylsulfoxide. Reactions can be quenched with 30 μl of ammonium molybdate/malachite green detection reagent containing 1.2 mM malachite green hydrochloride, 8.5 mM ammonium molybdate tetrahydrate, and 1 M hydrochloric acid. Plates can be read in an absorbance plate reader at 650 nm and percent inhibition values are calculated using dimethylsulfoxide (2%)-containing reactions as 0% inhibition and EDTA-containing (2.4 μM) reactions as 100% inhibition controls. An IC50 measurement of compound potency for each compound can be determined from reactions performed in the presence of 10 different compound concentrations. E. coli Topoisomerase IV ATPase Inhibition Activity: Compounds can be tested for inhibition of E. coli topoisomerase IV ATPase activity as described above for E. coli GyrB except the 30 μl reactions contained the following: 20 mM TRIS buffer pH 8, 50 mM ammonium acetate, 8 mM magnesium chloride, 5% glycerol, 5 mM 1,4-Dithio-DL-threitol, 0.005% Brij-35, 5 μg/ml sheared salmon sperm DNA, 500 pM E. coli ParC, 500 pM E. coli ParE, 160 μM ATP, and compound in dimethylsulfoxide. An IC50 measurement of compound potency for each compound can be determined from reactions performed in the presence of 10 different compound concentrations. S. aureus GyrB ATPase Inhibition Activity: Compounds may be tested for inhibition of S. aureus GyrB ATPase activity using an ammonium molybdate/malachite green-based phosphate detection assay (Lanzetta, P. A., L. J. Alvarez, P. S. Reinach, and O. A. Candia, 1979, 100: 95-97). Assays can be performed in multiwell plates in 30 μl reactions containing: 50 mM Hepes buffer pH 7.5, 75 mM ammonium acetate, 8.0 mM magnesium chloride, 0.5 mM ethylenediaminetetraacetic acid, 5% glycerol, 1.0 mM 1,4-Dithio-DL-threitol, 200 nM bovine serum albumin, 1.0 μg/ml sheared salmon sperm DNA, 250 pM E. coli GyrA, 250 pM S. aureus GyrB, 250 μM ATP, and compound in dimethylsulfoxide. Reactions can be quenched with 30 μl of ammonium molybdate/malachite green detection reagent containing 1.2 mM malachite green hydrochloride, 8.5 mM ammonium molybdate tetrahydrate, and 1 M hydrochloric acid. Plates can be read in an absorbance plate reader at 650 nm and percent inhibition values can be calculated using dimethylsulfoxide (2%)-containing reactions as 0% inhibition and EDTA-containing (2.4 μM) reactions as 100% inhibition controls. An IC50 measurement of compound potency for each compound can be determined from reactions performed in the presence of 10 different compound concentrations.
Compounds of the invention were tested in an assay substantially similar to the assay described above for measuring the inhibition of S. aureus GyrB ATPase. Percent inhibition of S. aureus GyrB ATPase at a compound concentration of 1 μM (unless otherwise noted) is disclosed in the following table: […]

S. aureus GyrB ATPase, sequence (P0AES4 whole entry): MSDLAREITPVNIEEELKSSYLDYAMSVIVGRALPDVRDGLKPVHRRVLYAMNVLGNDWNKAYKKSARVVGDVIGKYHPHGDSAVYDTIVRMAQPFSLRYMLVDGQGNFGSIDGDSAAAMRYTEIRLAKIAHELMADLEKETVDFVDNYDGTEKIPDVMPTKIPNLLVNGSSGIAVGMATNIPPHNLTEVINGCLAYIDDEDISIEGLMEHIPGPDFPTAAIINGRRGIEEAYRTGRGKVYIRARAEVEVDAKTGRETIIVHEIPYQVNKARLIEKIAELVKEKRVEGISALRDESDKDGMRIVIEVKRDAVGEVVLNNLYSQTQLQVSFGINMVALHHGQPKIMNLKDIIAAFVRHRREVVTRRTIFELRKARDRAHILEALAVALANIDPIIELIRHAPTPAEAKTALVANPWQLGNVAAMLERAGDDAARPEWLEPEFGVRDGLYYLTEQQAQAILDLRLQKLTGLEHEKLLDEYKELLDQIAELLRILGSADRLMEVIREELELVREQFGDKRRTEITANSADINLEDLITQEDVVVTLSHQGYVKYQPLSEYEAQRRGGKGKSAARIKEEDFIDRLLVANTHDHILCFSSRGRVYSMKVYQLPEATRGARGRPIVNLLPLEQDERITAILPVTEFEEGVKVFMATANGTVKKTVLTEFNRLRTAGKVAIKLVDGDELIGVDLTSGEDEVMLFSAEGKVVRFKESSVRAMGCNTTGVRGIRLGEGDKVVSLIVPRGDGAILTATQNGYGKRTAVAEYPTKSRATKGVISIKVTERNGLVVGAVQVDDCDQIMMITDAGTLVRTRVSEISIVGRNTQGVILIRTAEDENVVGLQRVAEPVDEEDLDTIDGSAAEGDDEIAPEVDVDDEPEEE
S. aureus GyrB ATPase, sequence (P0A0K8 whole entry): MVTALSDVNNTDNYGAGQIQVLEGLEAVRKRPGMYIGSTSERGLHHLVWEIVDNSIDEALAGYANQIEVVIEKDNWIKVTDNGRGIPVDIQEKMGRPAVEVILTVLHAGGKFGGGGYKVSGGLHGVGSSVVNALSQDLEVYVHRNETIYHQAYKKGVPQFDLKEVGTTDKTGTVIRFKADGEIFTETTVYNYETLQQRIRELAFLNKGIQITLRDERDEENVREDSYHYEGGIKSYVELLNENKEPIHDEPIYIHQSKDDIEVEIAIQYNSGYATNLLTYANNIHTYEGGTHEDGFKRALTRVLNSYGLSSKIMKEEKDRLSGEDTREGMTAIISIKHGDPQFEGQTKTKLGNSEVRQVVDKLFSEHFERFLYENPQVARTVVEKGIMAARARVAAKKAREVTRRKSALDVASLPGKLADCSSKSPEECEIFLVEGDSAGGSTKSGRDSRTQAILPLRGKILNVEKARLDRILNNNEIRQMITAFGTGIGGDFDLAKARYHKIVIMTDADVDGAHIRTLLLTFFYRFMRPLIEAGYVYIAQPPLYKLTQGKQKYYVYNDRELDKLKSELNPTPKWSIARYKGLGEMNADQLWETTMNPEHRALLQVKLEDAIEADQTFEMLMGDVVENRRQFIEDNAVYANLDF

SMILES | inhibition at 1 µM [%]
CCCO[C@H]1CN(c2nc(-c3ncnn3C)c(C(=O)O)s2)CC[C@H]1NC(=O)c1[nH]c(C)c(Cl)c1Cl [Example 215] | 106
CCO[C@H]1CN(c2nc(-c3cnc(NCCN4CCN(C)CC4)cn3)c(C(=O)O)s2)CC[C@H]1NC(=O)c1[nH]c(C)c(Cl)c1Cl [Example 95] | 114
Cc1[nH]c(C(=O)N[C@@H]2CCN(c3nc(-c4cnccn4)c(C(=O)O)s3)C[C@@H]2C)c(C#N)c1Cl [Example 29] | 98
CCO[C@H]1CN(c2nc(-c3cnc(N4CCN(CC5CCCO5)CC4)cn3)c(C(=O)O)s2)CC[C@H]1NC(=O)c1[nH]c(C)c(Cl)c1Cl (stereo partly drawn) [Example 104] | 105
C=CCO[C@H]1CN(c2nc(-c3cnccn3)c(C(=O)O)s2)CC[C@H]1NC(=O)c1[nH]c(C)c(Cl)c1Cl [Example 4] | 97
Cc1[nH]c(C(=O)N[C@@H]2CCN(c3nc(-c4cnc(NCCN5CCN(C)CC5)cn4)c(C(=O)O)s3)C[C@@H]2C)c(Cl)c1Cl [Example 175, 2-[(3S,4R)-4-{[(3,4-dichloro-5-methyl-1H-pyrrol-2-yl)carbonyl]amino}-3-methylpiperidin-1-yl]-4-(5-{[2-(4-methylpiperazin-1-yl)ethyl]amino}pyrazin-2-yl)-1,3-thiazole-5-carboxylic acid] | 106
CCO[C@H]1CN(c2nc(-c3ncccc3F)c(C(=O)O)s2)CC[C@H]1NC(=O)c1[nH]c(C)c(Cl)c1Cl [Example 10] | 90
Cc1[nH]c(C(=O)N[C@@H]2CCN(c3nc(-c4cnc(N5CCN(CC6CCCN(C)C6)CC5)cn4)c(C(=O)O)s3)C[C@@H]2C)c(Cl)c1Cl (stereo partly drawn) [Example 177, 2-[(3S,4R)-4-{[(3,4-dichloro-5-methyl-1H-pyrrol-2-yl)carbonyl]amino}-3-methylpiperidin-1-yl]-4-(5-{4-[(1-methylpiperidin-3-yl)methyl]piperazin-1-yl}pyrazin-2-yl)-1,3-thiazole-5-carboxylic acid] | 107
CO[C@H]1CN(c2nc(-c3cnc(NCCN4CCCC4=O)cn3)c(C(=O)O)s2)CC[C@H]1NC(=O)c1[nH]c(C)c(Cl)c1Cl [Example 127] | 110
Cc1[nH]c(C(=O)N[C@@H]2CCN(c3nc(-c4cnc(N5CCCCC5)cn4)c(C(=O)O)s3)C[C@@H]2C)c(Cl)c1Cl [Example 165, 2-[(3S,4R)-4-{[(3,4-dichloro-5-methyl-1H-pyrrol-2-yl)carbonyl]amino}-3-methylpiperidin-1-yl]-4-[5-(piperidin-1-yl)pyrazin-2-yl]-1,3-thiazole-5-carboxylic acid] | 107
CO[C@H]1CN(c2nc(-c3cnc(N4CCCCC4)cn3)c(C(=O)O)s2)CC[C@H]1NC(=O)c1[nH]c(C)c(Cl)c1Cl [Example 124] | 112
CCC(CC)N1CCN(c2cnc(-c3nc(N4CC[C@@H](NC(=O)c5[nH]c(C)c(Cl)c5Cl)[C@@H](OC)C4)sc3C(=O)O)cn2)CC1 [Example 137] | 101
CCO[C@H]1CN(c2nc(-c3cnc(N4CCN(CCO)CC4)cn3)c(C(=O)O)s2)CC[C@H]1NC(=O)c1[nH]c(C)c(Cl)c1Cl [Example 103] | 102
Cc1[nH]c(C(=O)N[C@@H]2CCN(c3nc(-c4cnc(NCCN5CCOCC5)cn4)c(C(=O)O)s3)C[C@@H]2C)c(Cl)c1Cl [Example 171, 2-[(3S,4R)-4-{[(3,4-dichloro-5-methyl-1H-pyrrol-2-yl)carbonyl]amino}-3-methylpiperidin-1-yl]-4-(5-{[2-(morpholin-4-yl)ethyl]amino}pyrazin-2-yl)-1,3-thiazole-5-carboxylic acid] | 101
CCO[C@H]1CN(c2nc(-c3cnc(N4CCN(CC5CCCCC5)CC4)cn3)c(C(=O)O)s2)CC[C@H]1NC(=O)c1[nH]c(C)c(Cl)c1Cl [Example 98] | 116
Cc1[nH]c(C(=O)N[C@@H]2CCN(c3nc(-c4cnc(N5CCN(C)CC5)cn4)c(C(=O)O)s3)C[C@@H]2C)c(Cl)c1Cl [Example 167, 2-[(3S,4R)-4-{[(3,4-dichloro-5-methyl-1H-pyrrol-2-yl)carbonyl]amino}-3-methylpiperidin-1-yl]-4-[5-(4-methylpiperazin-1-yl)pyrazin-2-yl]-1,3-thiazole-5-carboxylic acid] | 113
CCO[C@H]1CN(c2nc(-c3cnc(N4CCN[C@H](C)C4)cn3)c(C(=O)O)s2)CC[C@H]1NC(=O)c1[nH]c(C)c(Cl)c1Cl [Example 102] | 112
CCO[C@H]1CN(c2nc(-c3cnc(N4CCOCC4)cn3)c(C(=O)O)s2)CC[C@H]1NC(=O)c1[nH]c(C)c(Cl)c1Cl [Example 87] | 109
Cc1[nH]c(C(=O)N[C@@H]2CCN(c3nc(-c4cnc(N5CCNCC5)cn4)c(C(=O)O)s3)C[C@@H]2C)c(Cl)c1Cl [Example 168, 2-[(3S,4R)-4-{[(3,4-dichloro-5-methyl-1H-pyrrol-2-yl)carbonyl]amino}-3-methylpiperidin-1-yl]-4-[5-(piperazin-1-yl)pyrazin-2-yl]-1,3-thiazole-5-carboxylic acid] | 102
CCCO[C@H]1CN(c2nc(-c3nccn3CCOC)c(C(=O)O)s2)CC[C@H]1NC(=O)c1cc(Cl)c(C)[nH]1 [Example 201, 2-[(3S,4R)-4-{[(4-chloro-5-methyl-1H-pyrrol-2-yl)carbonyl]amino}-3-propoxypiperidin-1-yl]-4-[1-(2-methoxyethyl)-1H-imidazol-2-yl]-1,3-thiazole-5-carboxylic acid] | 105
CCO[C@H]1CN(c2nc(-c3cnc(NCCN4CCNC4=O)cn3)c(C(=O)O)s2)CC[C@H]1NC(=O)c1[nH]c(C)c(Cl)c1Cl [Example 93] | 94
CCO[C@H]1CN(c2nc(-c3cnccn3)c(C(=O)O)s2)CC[C@H]1NC(=O)c1[nH]c(C)c(Cl)c1Cl [Example 11] | 101
CO[C@H]1CN(c2nc(-c3cnc(OCCN4CCCC4)cn3)c(C(=O)O)s2)CC[C@H]1NC(=O)c1[nH]c(C)c(Cl)c1Cl [Example 62, 2-[(3S,4R)-4-{[(3,4-dichloro-5-methyl-1H-pyrrol-2-yl)carbonyl]amino}-3-methoxypiperidin-1-yl]-4-{5-[2-(pyrrolidin-1-yl)ethoxy]pyrazin-2-yl}-1,3-thiazole-5-carboxylic acid] | 98
CO[C@H]1CN(c2nc(-c3cnc(N4CCN(CC(C)C)CC4)cn3)c(C(=O)O)s2)CC[C@H]1NC(=O)c1[nH]c(C)c(Cl)c1Cl [Example 134] | 104
CCO[C@H]1CN(c2nc(-c3cnc(N4CCN(CC(C)C)CC4)cn3)c(C(=O)O)s2)CC[C@H]1NC(=O)c1[nH]c(C)c(Cl)c1Cl [Example 96] | 104
CO[C@H]1CN(c2nc(-c3cnc(OCCC4CCN(C)CC4)cn3)c(C(=O)O)s2)CC[C@H]1NC(=O)c1[nH]c(C)c(Cl)c1Cl [Example 65] | 107
Cc1[nH]c(C(=O)N[C@@H]2CCN(c3nc(-c4ncccc4F)c(C(=O)O)s3)C[C@@H]2C)c(Cl)c1Cl [Example 24] | 120
CO[C@H]1CN(c2nc(-c3cnc(N4CCN[C@H](C)C4)cn3)c(C(=O)O)s2)CC[C@H]1NC(=O)c1[nH]c(C)c(Cl)c1Cl [Example 140] | 107
Cc1[nH]c(C(=O)N[C@@H]2CCN(c3nc(-c4ncnn4C)c(C(=O)O)s3)C[C@@H]2C)c(Cl)c1Cl [Example 22] | 112
CCCO[C@H]1CN(c2nc(-c3cnccn3)c(C(=O)O)s2)CC[C@H]1NC(=O)c1cc(Cl)c(C)[nH]1 [Example 203, 2-[(3S,4R)-4-{[(4-chloro-5-methyl-1H-pyrrol-2-yl)carbonyl]amino}-3-propoxypiperidin-1-yl]-4-(pyrazin-2-yl)-1,3-thiazole-5-carboxylic acid] | 108
